Experimental data taken from patent US10195185B2, “3-(1H-imidazo[4,5-C]pyridin-2-yl)-1H-pyrazolo[4,3-B]pyridines and therapeutic uses thereof” (Samumed, LLC, priority 2015, dated 2019).

Key:
Format in all cases: cell-based
SW480 colon cancer cells = assay: Cell viability assay (CellTiter-Blue), four days; details: Homo sapiens, 96 h, CellTiter-Blue cell viability
Experimental: Representative compounds were screened using the following assay procedure to assess the effect on cell viability as described below.
Each compound was dissolved in DMSO as a 10 mM stock and used to prepare compound source plates. Serial dilution (1:3, 8-point dose-response curves from 10 μM to 0.0045 μM) and compound transfer was performed using the ECHO 550 (Labcyte, Sunnyvale, Calif.) into 96-well clear bottom, black-walled plates (Corning-Costar).
Approximately 2×10^3 SW480 colon cancer cells were seeded into each well and allowed to incubate in the presence or absence of compound for four days at 37° C./5% CO2. Eight replicates of DMSO-treated cells served as controls and cells treated with compound were performed in duplicate.
After incubation, 20 μL of CellTiter-Blue (Promega) was added to each well allowed to incubate for approximately 3 hours. This reagent was a buffered solution which contains resazurin, metabolically active cells were able to reduce rezarurin (blue) into resorufin (pink) which was highly fluorescent. This measured fluorescence was used as a readout for cell viability.
After incubation, the plates were read at Ex 560 nm Em 590 nm (Cytation 3, BioTek). Dose-response curves were generated and EC50 concentration values were calculated using non-linear regression curve fit in the GraphPad Prism (San Diego, Calif.) or Dotmatics' Studies Software (Bishops Stortford, UK). For EC50 of >10 μM, the percent inhibition at 10 μM is provided.

[1] = test system: Primary human fibroblasts derived from IPF patients (LL29 cells) treated with TGF-β1; assay: Inhibition of the fibrotic process: αSMA staining in TGF-β1 treated fibroblasts; details: Fibroblast, 96 h, LL29 fibroblasts treated with TGF-β1, 4 days
Text: Representative compounds were screened using primary human fibroblasts (derived from IPF patients) treated with TGF-β1 to determine their ability to inhibit the fibrotic process.
Primary human fibroblasts derived from IPF patients (LL29 cells) [^1Xiaoqiu Liu, et. al., “Fibrotic Lung Fibroblasts Show Blunted Inhibition by cAMP Due to Deficient cAMP Response Element-Binding Protein Phosphorylation”, Journal of Pharmacology and Experimental Therapeutics (2005), 315(2), 678-687; ^2Watts, K. L., et. al., “RhoA signaling modulates cyclin D1 expression in human lung fibroblasts; implications for idiopathic pulmonary fibrosis”, Respiratory Research (2006), 7(1), 88] were obtained from American Type Culture Collection (ATCC) and expanded in F12 medium supplemented with 15% Fetal Bovine Serum and Penicillin/Streptomycin.
Each compound was dissolved in DMSO as a 10 mM stock and used to prepare compound source plates. Serial dilution (1:2, 11-point dose-response curves from 10 μM to 1.87 nM) and compound transfer was performed using the ECHO 550 (Labcyte, Sunnyvale, Calif.) into 384-well clear bottom assay plates (Greiner Bio-One) with appropriate DMSO backfill for a final DMSO concentration of 0.1%. LL29 cells are plated at 1,500 cells/well in 80 μL/well F12 medium supplemented with 1% Fetal Bovine Serum. One hour after addition of the cells, TGF-β1 (Peprotech; 20 ng/mL) was added to the plates to induce fibrosis (ref. 1 and 2 above). Wells treated with TGF-β1 and containing DMSO were used as controls. Cells were incubated at 37° C. and 5% CO2 for 4 days. Following incubation for 4 days, SYTOX green nucleic acid stain (Life Technologies [Thermo Fisher Scientific]) was added to the wells at a final concentration of 1 μM and incubated at room temperature for 30 min. Cells were then fixed using 4% formaldehyde (Electron Microscopy Sciences), washed 3 times with PBS followed by blocking and permeabilization using 3% Bovine Serum Albumin (BSA; Sigma) and 0.3% Triton X-100 (Sigma) in PBS. Cells were then stained with antibody specific to α-smooth muscle actin (αSMA; Abcam) (ref. 1 and 2 above) in 3% Bovine Serum Albumin (BSA; Sigma) and 0.3% Triton X-100 (Sigma) in PBS, and incubated overnight at 4° C. Cells were then washed 3 times with PBS, followed by incubation with Alexa Flor-647 conjugated secondary antibody (Life Technologies [Thermo Fisher Scientific]) and DAPI at room temperature for 1 hour. Cells were then washed 3 times with PBS and plates were sealed for imaging. αSMA staining was imaged by excitation at 630 nm and emission at 665 nm and quantified using the Compartmental Analysis program on the CellInsight CX5 (Thermo Scientific). Dead or apoptotic cells were excluded from analysis based on positive SYTOX green staining. % of total cells positive for αSMA were counted in each well and normalized to the average of 11 wells treated with TGF-β1 on the same plate using Dotmatics' Studies Software. The normalized averages (fold change over untreated) of 3 replicate wells for each compound concentration were used to create dose-responses curves and EC50 values were calculated using non-linear regression curve fit in the Dotmatics' Studies Software. For EC50 of >10 μM, the percent inhibition at 10 μM is provided.

[2] = test system: Wnt activity (Wnt-responsive human Sp5 promoter, TCF/LEF binding sites) in SW480 colon carcinoma cells; assay: Wnt activity screening assay: Sp5-Luc luciferase reporter gene in SW480 cells; details: 10-point dose-response from 10 μM, incubated overnight
Text: The screening assay for Wnt activity is described as follows. Reporter cell lines can be generated by stably transducing cancer cell lines (e.g., colon cancer) or primary cells (e.g., IEC-6 intestinal cells) with a lentiviral construct that includes a Wnt-responsive promoter driving expression of the firefly luciferase gene.
SW480 colon carcinoma cells were transduced with a lentiviral vector expressing luciferase with a human Sp5 promoter consisting of a sequence of eight TCF/LEF binding sites. SW480 cells stably expressing the Sp5-Luc reporter gene and a hygromycin resistance gene were selected by treatment with 150 μg/mL of hygromycin for 7 days. These stably transduced SW480 cells were expanded in cell culture and used for all further screening activities. Each compound was dissolved in DMSO as a 10 mM stock and used to prepare compound source plates. Serial dilution (1:3, 10-point dose-response curves starting from 10 μM) and compound transfer was performed using the ECHO 550 (Labcyte, Sunnyvale, Calif.) into 384-well white solid bottom assay plates (Greiner Bio-One) with appropriate DMSO backfill for a final DMSO concentration of 0.1%. For Sp5-Luc reporter gene assays, the cells were plated at 4,000 cells/well in 384-well plates with medium containing 1% fetal bovine serum and incubated overnight at 37° C. and 5% CO2. Following incubation, 20 μl of BrightGlo luminescence reagent (Promega) was added to each well of the 384-well assay plates. The plates were placed on an orbital shaker for 2 min and then luminescence was quantified using the Envision (Perkin Elmer) plate reader. Readings were normalized to DMSO only treated cells, and normalized activities were utilized for EC50 calculations using the dose-response log (inhibitor) vs. response-variable slope (four parameters) nonlinear regression feature available in GraphPad Prism 5.0 (or Dotmatics). For EC50 of >10 μM, the percent inhibition at 10 μM is provided.

[3] = test system: IL-6 in human monocyte cell line (THP-1 cells); assay: IL-6 inhibition in LPS-stimulated THP-1 cells (HTRF); details: IL-6 in LPS-stimulated THP-1 cells, HTRF
Experimental: Human monocyte cell line (THP-1 cells; Catalog # TIB-202, ATCC, Manassas, Va.) were cultured in Roswell Park Memorial Institute (RPMI) 1640 Medium (Catalog #21870-100, Buffalo, N.Y.) with 1% L-glutamine, 1% HEPES, 1% Sodium Pyruvate, 2% Sodium Bicarbonate supplemented with 100 units/mL penicillin, 50 μg/mL streptomycin, 2-mercaptoethanol (0.05 mM) [basal medium] and 10% fetal bovine serum (Catalog #16140089, Life Technologies, Carlsbad, Calif.) at 37° C. and 5% CO2.
THP-1 cells were cultured in basal media with 1% FBS for 24 hours before the start of the assay. Each compound was dissolved in DMSO as a 10 mM stock and used to prepare compound source plates. Serial dilution (1:3, 10-point dose-response curves starting from 10 μM) and compound transfer was performed using the ECHO 550 (Labcyte, Sunnyvale, Calif.) into 384-well white low volume assay plates (Greiner Bio-One) with appropriate DMSO backfill for a final DMSO concentration of 0.1%. THP-1 cells were plated at 5000 cells/well in the 384-well plates and incubated at 37° C. for 2 h. 500 ng/mL of LPS was added after 2 hours and cells were incubated for another 22 hours at 37° C. Plates were spun in a centrifuge for 1 minute at […] and a mixture of anti-IL6 XL665, and anti-IL6 Cryptate diluted in reconstitution buffer (Cisbio Inc.) was added to each well. Following incubation for 3 hrs at room temperature, Homogeneous Time-Resolved Fluorescence (HTRF) was measured using the Envision (Perkin Elmer) at 665 nm and […]. The ratio of fluorescence at 665 nm to 620 nm was used as a readout for IL6 quantification. All samples were processed in duplicate. Readings were normalized to DMSO treated cells and normalized activities were utilized for EC50 calculations using the dose-response log (inhibitor) vs. response-variable slope (four parameters) nonlinear regression feature available in GraphPad Prism 5.0 (or Dotmatics). For EC50 of >10 μM, the percent inhibition at 10 μM is provided.

| EC50 (SW480 colon cancer cells) | EC50 [2] | EC50 [3] | SMILES | EC50 [1] |
| --- | --- | --- | --- | --- |
| 9370 nM | 2200 nM | 3980 nM | Oc1cncc(-c2ccc3[nH]nc(-c4nc5c(N6CCCCC6)nccc5[nH]4)c3n2)c1 [Compound 613, 5-(3-(4-(Piperidin-1-yl)-1H-imidazo[4,5-c]pyridin-2-yl)-1H-pyrazolo[4,3-b]pyridin-5-yl)pyridin-3-ol] | 9460 nM |
| 2580 nM | 6780 nM | 123 nM | c1ccc(CNCc2cncc(-c3ccc4[nH]nc(-c5nc6c(-c7cccnc7)nccc6[nH]5)c4n3)c2)cc1 [Compound 108, N-Benzyl-1-(5-(3-(4-(pyridin-3-yl)-1H-imidazo[4,5-c]pyridin-2-yl)-1H-pyrazolo [4,3-b]pyridin-5-yl)pyridin-3-yl)methanamine] | 9060 nM |
| 1570 nM | 1110 nM | 38 nM | CN(C)CCNc1cc(F)cc(-c2nccc3[nH]c(-c4n[nH]c5ccc(-c6cncc(OCc7ccccc7)c6)nc45)nc23)c1 [Compound 790, N^1-(3-(2-(5-(5-(Benzyloxy)pyridin-3-yl)-1H-pyrazolo[4,3-b]pyridin-3-yl)-1H-imidazo[4,5-c]pyridin-4-yl)-5-fluorophenyl)-N^2,N^2-dimethylethane-1,2-diamine] | 3170 nM |
